Measured values: paper PMC5218480 (PLoS ONE, 2017)

Test system: MV-4-11 cells
Test: Gene expression microarray analysis (Affymetrix PrimeView) and GSEA
Assay type: cell-based, human
Parameters: RFU PODN (11730768_x_at) / Fold change /veh PODN (11730768_x_at) / RFU LINC00158 (11744669_a_at) / Fold change /veh LINC00158 (11744669_a_at) / RFU DUSP10 (11751237_a_at) / Fold change /veh DUSP10 (11751237_a_at) / RFU ID3 (11757404_x_at) / Fold change /veh ID3 (11757404_x_at) / RFU PLEKHG5 (11737974_s_at) / Fold change /veh PLEKHG5 (11737974_s_at) / RFU LRRC4B (11730491_at) / Fold change /veh LRRC4B (11730491_at) / RFU GIMAP4 (11747438_a_at) / Fold change /veh GIMAP4 (11747438_a_at) / RFU KRT8 (11758183_x_at) / Fold change /veh KRT8 (11758183_x_at) / RFU CNN1 (11734310_a_at) / Fold change /veh CNN1 (11734310_a_at) / RFU VPS37D (11726825_at) / Fold change /veh VPS37D (11726825_at) / RFU C10orf10 (11716522_x_at) / Fold change /veh C10orf10 (11716522_x_at) / RFU KIR2DL2 /// KIR2DL4 /// KIR2DL5A /// KIR2DL5B /// KIR2DS1 /// KIR2DS2 /// KIR2DS3 /// KIR2DS4 /// KIR3DL3 /// KIR3DL3 /// KIR3DS1 (11738374_at) / Fold change /veh KIR2DL2 /// KIR2DL4 /// KIR2DL5A /// KIR2DL5B /// KIR2DS1 /// KIR2DS2 /// KIR2DS3 /// KIR2DS4 /// KIR3DL3 /// KIR3DL3 /// KIR3DS1 (11738374_at) / RFU C1QL1 (11718748_at) / Fold change /veh C1QL1 (11718748_at) / RFU TMPRSS4 (11747572_a_at) / Fold change /veh TMPRSS4 (11747572_a_at) / RFU HAMP (11756126_x_at) / Fold change /veh HAMP (11756126_x_at) / RFU RNFT2 (11725882_a_at) / Fold change /veh RNFT2 (11725882_a_at) / RFU NR4A2 (11747474_a_at) / Fold change /veh NR4A2 (11747474_a_at) / RFU ABCC12 (11746883_a_at) / Fold change /veh ABCC12 (11746883_a_at) / RFU TMEM136 (11760407_x_at) / Fold change /veh TMEM136 (11760407_x_at) / RFU CLDN22 /// WWC2 (11732394_at) / Fold change /veh CLDN22 /// WWC2 (11732394_at) / RFU HLA-DPB1 (11760878_x_at) / Fold change /veh HLA-DPB1 (11760878_x_at) / RFU SPINT1 (11716480_a_at) / Fold change /veh SPINT1 (11716480_a_at) / RFU GAP43 (11754022_s_at) / Fold change /veh GAP43 (11754022_s_at) / RFU A4GNT (11735810_at) / Fold change /veh A4GNT (11735810_at) / RFU PRB3 (11715151_x_at) / Fold change /veh PRB3 (11715151_x_at) / RFU TUBB4B (11761932_at) / Fold change /veh TUBB4B (11761932_at) / RFU CAPN14 (11732068_a_at) / Fold change /veh CAPN14 (11732068_a_at) / RFU TMCC2 (11721928_a_at) / Fold change /veh TMCC2 (11721928_a_at) / RFU IRGQ (11745062_a_at) / Fold change /veh IRGQ (11745062_a_at) / RFU FAM174B (11720279_a_at) / Fold change /veh FAM174B (11720279_a_at) / RFU TMPRSS4 (11748680_a_at) / Fold change /veh TMPRSS4 (11748680_a_at) / RFU FAM212B (11763350_a_at) / Fold change /veh FAM212B (11763350_a_at) / RFU PLEKHG5 (11743358_a_at) / Fold change /veh PLEKHG5 (11743358_a_at) / RFU ZSCAN30 (11745921_a_at) / Fold change /veh ZSCAN30 (11745921_a_at) / RFU CMKLR1 (11741424_a_at) / Fold change /veh CMKLR1 (11741424_a_at) / RFU LOC101060620 /// MAPK8IP1 (11723275_at) / Fold change /veh LOC101060620 /// MAPK8IP1 (11723275_at) / RFU SPTSSB (11747773_x_at) / Fold change /veh SPTSSB (11747773_x_at) / RFU PRSS12 (11739890_at) / Fold change /veh PRSS12 (11739890_at) / RFU BIN1 (11741810_x_at) / Fold change /veh BIN1 (11741810_x_at) / RFU WNT11 (11732464_a_at) / Fold change /veh WNT11 (11732464_a_at) / RFU C10orf10 (11716521_a_at) / Fold change /veh C10orf10 (11716521_a_at) / RFU C5orf56 (11738089_at) / Fold change /veh C5orf56 (11738089_at) / RFU CYB561 (11721691_x_at) / Fold change /veh CYB561 (11721691_x_at) / RFU ANKRD19P (11752326_a_at) / Fold change /veh ANKRD19P (11752326_a_at) / RFU OR2T12 /// OR2T33 /// OR2T8 (11738714_s_at) / Fold change /veh OR2T12 /// OR2T33 /// OR2T8 (11738714_s_at) / RFU VCAN (11748164_a_at) / Fold change /veh VCAN (11748164_a_at) / RFU JSRP1 (11732532_at) / Fold change /veh JSRP1 (11732532_at) / RFU KRTAP10-11 (11738290_x_at) / Fold change /veh KRTAP10-11 (11738290_x_at) / RFU MYO3A (11730013_a_at) / Fold change /veh MYO3A (11730013_a_at) / RFU EBF3 (11725865_a_at) / Fold change /veh EBF3 (11725865_a_at) / RFU CAMK2N1 (11719241_x_at) / Fold change /veh CAMK2N1 (11719241_x_at) / RFU C5orf56 (11738088_a_at) / Fold change /veh C5orf56 (11738088_a_at) / RFU OLFML3 (11715873_a_at) / Fold change /veh OLFML3 (11715873_a_at) / RFU LOC100653217 /// NTM (11731650_a_at) / Fold change /veh LOC100653217 /// NTM (11731650_a_at) / RFU MAPK11 (11762145_a_at) / Fold change /veh MAPK11 (11762145_a_at) / RFU FIZ1 (11724087_x_at) / Fold change /veh FIZ1 (11724087_x_at) / RFU OASL (11726364_x_at) / Fold change /veh OASL (11726364_x_at) / RFU SOX15 (11748057_x_at) / Fold change /veh SOX15 (11748057_x_at) / RFU CD79A (11719716_a_at) / Fold change /veh CD79A (11719716_a_at) / RFU HIST1H1D (11736915_at) / Fold change /veh HIST1H1D (11736915_at) / RFU CASKIN2 (11723855_a_at) / Fold change /veh CASKIN2 (11723855_a_at) / RFU LOC730098 (11760151_x_at) / Fold change /veh LOC730098 (11760151_x_at) / RFU OR4N2 (11742367_at) / Fold change /veh OR4N2 (11742367_at) / RFU PRRT2 (11749266_a_at) / Fold change /veh PRRT2 (11749266_a_at) / RFU SNX32 (11753110_a_at) / Fold change /veh SNX32 (11753110_a_at) / RFU CDHR5 (11726645_a_at) / Fold change /veh CDHR5 (11726645_a_at) / RFU RCAN1 (11760418_a_at) / Fold change /veh RCAN1 (11760418_a_at) / RFU FAM167A (11723789_a_at) / Fold change /veh FAM167A (11723789_a_at) / RFU FAM26E (11764081_at) / Fold change /veh FAM26E (11764081_at) / RFU ISYNA1 (11749810_s_at) / Fold change /veh ISYNA1 (11749810_s_at) / RFU ACY1 (11761880_at) / Fold change /veh ACY1 (11761880_at) / RFU 11764098_at / Fold change /veh 11764098_at / RFU SAMD14 (11745864_x_at) / Fold change /veh SAMD14 (11745864_x_at) / RFU NPB (11741838_a_at) / Fold change /veh NPB (11741838_a_at) / RFU TMPRSS6 (11731388_a_at) / Fold change /veh TMPRSS6 (11731388_a_at) / RFU KRTAP10-2 (11738614_at) / Fold change /veh KRTAP10-2 (11738614_at) / RFU ARHGAP8 /// PRR5-ARHGAP8 (11727945_x_at) / Fold change /veh ARHGAP8 /// PRR5-ARHGAP8 (11727945_x_at) / RFU KRTAP5-7 /// NADSYN1 (11734609_at) / Fold change /veh KRTAP5-7 /// NADSYN1 (11734609_at) / RFU RASL12 (11751679_a_at) / Fold change /veh RASL12 (11751679_a_at) / RFU CDKN2B (11736163_a_at) / Fold change /veh CDKN2B (11736163_a_at) / RFU PRF1 (11729649_at) / Fold change /veh PRF1 (11729649_at) / RFU, ZNF638 /// ZNF638-IT1 / Fold change vs veh, ZNF638 /// ZNF638-IT1 / RFU, PANK3 / Fold change vs veh, PANK3 / RFU, SH3YL1 / Fold change vs veh, SH3YL1 / RFU, ZEB2 / Fold change vs veh, ZEB2 / RFU, NRIP1 / Fold change vs veh, NRIP1 / RFU, PTTG1IP / Fold change vs veh, PTTG1IP / RFU, CAPN2 / Fold change vs veh, CAPN2 / RFU, MED14 / Fold change vs veh, MED14 / RFU, SNORA58 / Fold change vs veh, SNORA58 / RFU, C1orf63 / Fold change vs veh, C1orf63 / RFU, LRRFIP1 / Fold change vs veh, LRRFIP1 / RFU, NDUFAF7 / Fold change vs veh, NDUFAF7 / RFU, SLC12A2 / Fold change vs veh, SLC12A2 / RFU, IBTK / Fold change vs veh, IBTK / RFU, ESF1 / Fold change vs veh, ESF1 / Fold change vs veh, TMEM50B / RFU, TAOK1 / Fold change vs veh, TAOK1 / RFU, ACBD3 / Fold change vs veh, ACBD3 / RFU, TMA16 / Fold change vs veh, TMA16 / RFU, RWDD3 / Fold change vs veh, RWDD3 / RFU, BCAT1 / Fold change vs veh, BCAT1 / RFU, EDEM3 / Fold change vs veh, EDEM3 / RFU, TMEM33 / Fold change vs veh, TMEM33 / RFU, WDR75 / Fold change vs veh, WDR75 / RFU, AHCTF1 / Fold change vs veh, AHCTF1 / RFU, TFRC / Fold change vs veh, TFRC / RFU, ZDHHC17 / Fold change vs veh, ZDHHC17 / RFU, NOM1 / Fold change vs veh, NOM1 / RFU, ARL8B / Fold change vs veh, ARL8B / RFU, ZBTB11 / Fold change vs veh, ZBTB11 / RFU, TAMM41 / Fold change vs veh, TAMM41 / RFU, KIAA1704 /// LOC100996395 / Fold change vs veh, KIAA1704 /// LOC100996395 / RFU, ING1 / Fold change vs veh, ING1 / RFU, TRMT61B / Fold change vs veh, TRMT61B / RFU, FUBP3 / Fold change vs veh, FUBP3 / RFU, TP53 / Fold change vs veh, TP53 / RFU, TNKS2 / Fold change vs veh, TNKS2 / RFU, ZFP14 / Fold change vs veh, ZFP14 / RFU, ACTR2 / Fold change vs veh, ACTR2 / RFU, PPP3R1 / Fold change vs veh, PPP3R1 / RFU, PIK3R1 / Fold change vs veh, PIK3R1 / RFU, HNRNPA1 / Fold change vs veh, HNRNPA1 / RFU, RNF170 / Fold change vs veh, RNF170 / RFU, ZNF28 / Fold change vs veh, ZNF28 / RFU, RNGTT / Fold change vs veh, RNGTT / RFU, OGT / Fold change vs veh, OGT / RFU, BRD1 / Fold change vs veh, BRD1 / RFU, MARS / Fold change vs veh, MARS / RFU, ZNF655 / Fold change vs veh, ZNF655 / RFU, FAHD1 / Fold change vs veh, FAHD1 / RFU, BDP1 / Fold change vs veh, BDP1 / RFU, LRRCC1 / Fold change vs veh, LRRCC1 / RFU, ARID1A / Fold change vs veh, ARID1A / RFU, ZNF146 / Fold change vs veh, ZNF146 / RFU, ZNF330 / Fold change vs veh, ZNF330 / RFU, GPN3 / Fold change vs veh, GPN3 / RFU, C9orf123 / Fold change vs veh, C9orf123 / RFU, N4BP2L2 / Fold change vs veh, N4BP2L2 / RFU, ARFIP1 / Fold change vs veh, ARFIP1 / RFU, FAM179B / Fold change vs veh, FAM179B / RFU, BCL10 / Fold change vs veh, BCL10 / RFU, UHRF1BP1L / Fold change vs veh, UHRF1BP1L / RFU, BET1 / Fold change vs veh, BET1 / RFU, CNOT2 / Fold change vs veh, CNOT2 / RFU, ZNF268 / Fold change vs veh, ZNF268 / Fold change vs veh, ZNF507 / RFU, DGCR2 / Fold change vs veh, DGCR2 / RFU, WDSUB1 / Fold change vs veh, WDSUB1 / Fold change vs veh, HSP90B1 /// MIR3652 / RFU, ADSS / Fold change vs veh, ADSS / RFU, GK / Fold change vs veh, GK / RFU, ZNF148 / Fold change vs veh, ZNF148 / RFU, TAF9 / Fold change vs veh, TAF9 / RFU, SLC1A5 / Fold change vs veh, SLC1A5 / RFU, SLMO2 / Fold change vs veh, SLMO2 / RFU, ABCC4 / Fold change vs veh, ABCC4 / RFU, LOC101060439 /// RAP1B / Fold change vs veh, LOC101060439 /// RAP1B / RFU, RFX7 / Fold change vs veh, RFX7 / RFU, GTPBP10 / Fold change vs veh, GTPBP10 / RFU, CNEP1R1 / Fold change vs veh, CNEP1R1 / RFU, BIVM-ERCC5 /// ERCC5 / Fold change vs veh, BIVM-ERCC5 /// ERCC5 / RFU, ILF3 / Fold change vs veh, ILF3 / RFU 11762660_at / Fold change /veh 11762660_at / RFU VCAN (11757783_s_at) / Fold change /veh VCAN (11757783_s_at) / RFU DDX43 (11728927_at) / Fold change /veh DDX43 (11728927_at) / RFU KRT8 (11758188_x_at) / Fold change /veh KRT8 (11758188_x_at) / RFU NKD1 (11759106_at) / Fold change /veh NKD1 (11759106_at) / RFU SRD5A1 (11742802_a_at) / Fold change /veh SRD5A1 (11742802_a_at) / RFU TPSAB1 /// TPSB2 (11721975_s_at) / Fold change /veh TPSAB1 /// TPSB2 (11721975_s_at) / RFU GSTM3 (11746129_a_at) / Fold change /veh GSTM3 (11746129_a_at) / RFU IL23R (11737362_x_at) / Fold change /veh IL23R (11737362_x_at) / RFU TMEM51 (11727254_a_at) / Fold change /veh TMEM51 (11727254_a_at) / RFU PIWIL2 (11732686_x_at) / Fold change /veh PIWIL2 (11732686_x_at) / RFU ORM1 (11744905_x_at) / Fold change /veh ORM1 (11744905_x_at) / RFU CCDC152 (11743942_at) / Fold change /veh CCDC152 (11743942_at) / RFU ECM1 (11717891_a_at) / Fold change /veh ECM1 (11717891_a_at) / RFU IL23R (11748794_a_at) / Fold change /veh IL23R (11748794_a_at) / RFU TNFAIP8L3 (11732012_x_at) / Fold change /veh TNFAIP8L3 (11732012_x_at) / RFU MBOAT4 (11741988_at) / Fold change /veh MBOAT4 (11741988_at) / RFU 11764193_at / Fold change /veh 11764193_at / RFU TMEM53 (11763286_at) / Fold change /veh TMEM53 (11763286_at) / RFU MAGEB2 (11727129_at) / Fold change /veh MAGEB2 (11727129_at) / RFU TMEM200A (11744735_a_at) / Fold change /veh TMEM200A (11744735_a_at) / RFU CCDC152 (11751479_a_at) / Fold change /veh CCDC152 (11751479_a_at) / RFU FAM211A (11726209_a_at) / Fold change /veh FAM211A (11726209_a_at) / RFU RGS16 (11746705_a_at) / Fold change /veh RGS16 (11746705_a_at) / RFU VCAN (11755009_s_at) / Fold change /veh VCAN (11755009_s_at) / RFU RHOB (11743442_s_at) / Fold change /veh RHOB (11743442_s_at) / RFU RGS16 (11720943_a_at) / Fold change /veh RGS16 (11720943_a_at) / RFU RGS16 (11720944_at) / Fold change /veh RGS16 (11720944_at) / RFU, VPS4B / Fold change vs veh, VPS4B / RFU, CREB1 / Fold change vs veh, CREB1 / RFU, DNAJC13 / Fold change vs veh, DNAJC13 / RFU, GNAQ / Fold change vs veh, GNAQ / RFU, CDK5R1 / Fold change vs veh, CDK5R1 / RFU, ZRANB3 / Fold change vs veh, ZRANB3 / RFU, CUL4A / Fold change vs veh, CUL4A / RFU, CCNY / Fold change vs veh, CCNY / RFU, UFL1 / Fold change vs veh, UFL1 / RFU, COG3 / Fold change vs veh, COG3 / RFU, DIAPH2 / Fold change vs veh, DIAPH2 / RFU, SKA2 / Fold change vs veh, SKA2 / RFU, AFF3 / Fold change vs veh, AFF3 / RFU, LMF1 / Fold change vs veh, LMF1 / RFU, IPO11 / Fold change vs veh, IPO11 / RFU, DFFB / Fold change vs veh, DFFB / RFU, FOXP1 / Fold change vs veh, FOXP1 / RFU, CARD8 / Fold change vs veh, CARD8 / RFU, STRN3 / Fold change vs veh, STRN3 / RFU, ADK / Fold change vs veh, ADK / RFU, RASSF2 / Fold change vs veh, RASSF2 / RFU, WIPF1 / Fold change vs veh, WIPF1 / RFU, LARP1B / Fold change vs veh, LARP1B / RFU, RASA1 / Fold change vs veh, RASA1 / RFU, RB1 / Fold change vs veh, RB1 / RFU, PPFIA1 / Fold change vs veh, PPFIA1 / RFU, MAT2A / Fold change vs veh, MAT2A / RFU, CCT5 / Fold change vs veh, CCT5 / RFU, WDR92 / Fold change vs veh, WDR92 / RFU, CUX1 / Fold change vs veh, CUX1 / RFU, TTC7A / Fold change vs veh, TTC7A / RFU, TMEM135 / Fold change vs veh, TMEM135 / RFU, DEPTOR / Fold change vs veh, DEPTOR / RFU, CPM / Fold change vs veh, CPM / RFU, DNAJB6 / Fold change vs veh, DNAJB6 / RFU, CACNA2D3 / Fold change vs veh, CACNA2D3 / RFU, DTX4 / Fold change vs veh, DTX4 / RFU, TFCP2 / Fold change vs veh, TFCP2 / RFU, GMCL1 /// GMCL1P1 / Fold change vs veh, GMCL1 /// GMCL1P1 / RFU, AEBP2 / Fold change vs veh, AEBP2 / RFU, SNHG1 /// SNORD22 /// SNORD25 /// SNORD26 /// SNORD27 /// SNORD28 /// SNORD29 /// SNORD31 / Fold change vs veh, SNHG1 /// SNORD22 /// SNORD25 /// SNORD26 /// SNORD27 /// SNORD28 /// SNORD29 /// SNORD31 / Fold change (Aza/veh), C12orf56 (ProbeSet 11735607_a_at) / Fold change (ACY-1035/veh), C12orf56 (ProbeSet 11735607_a_at) / Fold change (Aza/veh), FGFR1OP (ProbeSet 11751329_s_at) / Fold change (ACY-1035/veh), FGFR1OP (ProbeSet 11751329_s_at) / Fold change (Aza/veh), VPS36 (ProbeSet 11739960_a_at) / Fold change (ACY-1035/veh), VPS36 (ProbeSet 11739960_a_at) / RFU SYPL1 (11715823_x_at) / Fold change /veh SYPL1 (11715823_x_at) / RFU IGFBP7 (11715501_s_at) / Fold change /veh IGFBP7 (11715501_s_at) / RFU REEP3 (11722064_at) / Fold change /veh REEP3 (11722064_at) / RFU IGLL1 (11728026_x_at) / Fold change /veh IGLL1 (11728026_x_at): dose or concentration left out as unconfirmed
Settings: ProbeSet 11718977_a_at; LIST B

For `Nc1ncn([C@@H]2O[C@H](CO)[C@@H](O)[C@H]2O)c(=O)n1` [azacitidine], the “RFU, CAPN2” value was 169.72 RFU.
